This is an account of results in patent publication US20210269434A1, “TRICYCLIC COMPOUNDS AS INHIBITORS OF KRAS” (Incyte Corporation, priority 2020, published 2021).

Bounds are passed on as bounds.

Sequence of KRAS G12D (P01116 1-188 isoform P01116-2 G12D): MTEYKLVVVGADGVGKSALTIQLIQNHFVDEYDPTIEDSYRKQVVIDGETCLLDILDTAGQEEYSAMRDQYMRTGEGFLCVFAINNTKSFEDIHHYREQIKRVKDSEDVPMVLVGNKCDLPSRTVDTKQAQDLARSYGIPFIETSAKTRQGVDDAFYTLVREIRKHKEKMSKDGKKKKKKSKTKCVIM

The experiment addresses KRAS G12D (Homo sapiens, UniProt P01116, G12D). The experiment in a line: GDP-GTP exchange assay (KRAS_G12D exchange). The note with it: bodipy loaded KRAS G12D 2.5 nM; 4 hours incubation after GppNHp-SOS1; read-out: G12D_exchange. It counts as biochemical. The protocol: Example A. GDP-GTP Exchange Assay
The inhibitor potency of the exemplified compounds was determined in a fluorescence based guanine nucleotide exchange assay, which measures the exchange of bodipy-GDP (fluorescently labeled GDP) for GppNHp (Non-hydrolyzable GTP analog) to generate the active state of KRAS in the presence of SOS1 (guanine nucleotide exchange factor). Inhibitors were serially diluted in DMSO and a volume of 0.1 μL was transferred to the wells of a black low volume 384-well plate. 5 μL/well volume of bodipy-loaded KRAS G12C diluted to 5 nM in assay buffer (25 mM Hepes pH 7.5, 50 mM NaCl, 10 mM MgCl2 and 0.01% Brij-35) was added to the plate and pre-incubated with inhibitor for 2 hours at ambient temperature. Appropriate controls (enzyme with no inhibitor or with a G12C inhibitor (AMG-510)) were included on the plate. The exchange was initiated by the addition of a 5 μL/well volume containing 1 mM GppNHp and 300 nM SOS1 in assay buffer. The 10 μL/well reaction concentration of the bodipy-loaded KRAS G12C, GppNHp, and SOS1 were 2.5 nM, 500 uM, and 150 nM, respectively. The reaction plates were incubated at ambient temperature for 2 hours, a time estimated for complete GDP-GTP exchange in the absence of inhibitor. For the KRAS G12D and G12V mutants, similar guanine nucleotide exchange assays were used with 2.5 nM as final concentration for the bodipy loaded KRAS proteins and with 4 hours and 3 hours incubation after adding GppNHp-SOS1 mixture for G12D and G12V respectively. A cyclic peptide described to selectively bind G12D mutant (Sakamoto et al., BBRC 484.3 (2017), 605-611) or internal compounds with confirmed binding were used as positive controls in the assay plates. Fluorescence intensities were measured on a PheraStar plate reader instrument (BMG Labtech) with excitation at 485 nm and emission at 520 nm.
Either GraphPad prism or XLfit was used to analyze the data. The IC50 values were derived by fitting the data to a four parameter logistic equation producing a sigmoidal dose-response curve with a variable Hill coefficient. Prism equation: Y=Bottom+(Top−Bottom)/(1+10^((Log lC50−X)*Hill slope)); XLfit equation: Y=(A+((B−A)/(1+((X/C)^D)))) where X is the logarithm of inhibitor concentration and Y is the response.
Consider `CN(C)C1CN(c2nc3c(F)c(-c4cc(O)cc5ccccc45)c(Cl)cc3c3c2nc(CCN)n3[C@H]2[C@H]3CN[C@@H]2C3)C1` [Example 76, 4-(2-(2-aminoethyl)-1-((endo)-2-azabicyclo[2.1.1]hexan-5-yl)-8-chloro-4-(3-(dimethylamino)azetidin-1-yl)-6-fluoro-1H-imidazo[4,5-c]quinolin-7-yl)naphthalen-2-ol], for which the IC50 lay within 100 to 1000 nM.

Consider `CN(C)C(=O)CCc1nc2c(N3CC(N(C)C)C3)nc3c(Oc4ccccc4)c(-c4cc(O)cc5ccccc45)c(CCC#N)cc3c2n1C1C2CNC1C2` (stereo not drawn) [Example 293, 3-(1-((endo)-2-azabicyclo[2.1.1]hexan-5-yl)-8-(2-cyanoethyl)-4-(3-(dimethylamino)azetidin-1-yl)-7-(3-hydroxynaphthalen-1-yl)-6-phenoxy-1H-imidazo[4,5-c]quinolin-2-yl)-N,N-dimethylpropanamide], for which the IC50 fell in the range of 100 to 1000 nM.

Consider `CN(C)C1CN(c2nc3c(F)c(-c4cc(O)cc5ccc(Cl)cc45)c(Cl)cc3c3c2ncn3[C@H]2[C@H]3CN[C@@H]2C3)C1` (single isomer, unassigned) [Example 23a, 4-(1-((endo)-2-azabicyclo[2.1.1]hexan-5-yl)-8-chloro-4-(3-(dimethylamino)azetidin-1-yl)-6-fluoro-1H-imidazo[4,5-c]quinolin-7-yl)-6-chloronaphthalen-2-ol], for which the IC50 was 100 to 1000 nM.

As for `CCc1nc2c(N3CC(N(C)C)C3)nc3c(F)c(-c4cc(O)cc5ccccc45)c(CCC#N)cc3c2n1C1C2CC1N(Cc1ccc[nH]1)C2` (single isomer, unassigned) [Example 296b, 3-(1-((endo)-2-((1H-pyrrol-2-yl)methyl)-2-azabicyclo[2.1.1]hexan-5-yl)-4-(3-(dimethylamino)azetidin-1-yl)-2-ethyl-6-fluoro-7-(3-hydroxynaphthalen-1-yl)-1H-imidazo[4,5-c]quinolin-8-yl)propanenitrile], the IC50 was at most 100 nM.

As for `CNCCc1nc2c(N3CC(N(C)C)C3)nc3c(F)c(-c4cc(O)cc5ccccc45)c(-c4cn[nH]c4)cc3c2n1C1C2CNC1C2` (single isomer, unassigned) [Example 295b, 4-(1-((endo)-2-azabicyclo[2.1.1]hexan-5-yl)-4-(3-(dimethylamino)azetidin-1-yl)-6-fluoro-2-(2-(methylamino)ethyl)-8-(1H-pyrazol-4-yl)-1H-imidazo[4,5-c]quinolin-7-yl)naphthalen-2-ol], the IC50 was 100 to 1000 nM.

Turning to `CN(C)C(=O)CCc1nc2c(-c3ccc(=O)n(C)c3)nc3c(F)c(-c4cc(O)cc5ccccc45)c(CCC#N)cc3c2n1C1C2CNC1C2` (stereo not drawn) [Example 298, 3-(1-((endo)-2-azabicyclo[2.1.1]hexan-5-yl)-8-(2-cyanoethyl)-6-fluoro-7-(3-hydroxynaphthalen-1-yl)-4-(1-methyl-6-oxo-1,6-dihydropyridin-3-yl)-1H-imidazo[4,5-c]quinolin-2-yl)-N,N-dimethylpropanamide], the IC50 is at most 100 nM.

In the case of `CN(C)C1CN(c2nc3c(F)c(-c4cc(O)cc5ccccc45)c(CCC#N)cc3c3c2nc(CN2CCOCC2=O)n3C2C3CNC2C3)C1` (single isomer, unassigned) [Example 300a, 3-(1-((endo)-2-azabicyclo[2.1.1]hexan-5-yl)-4-(3-(dimethylamino)azetidin-1-yl)-6-fluoro-7-(3-hydroxynaphthalen-1-yl)-2-((3-oxomorpholino)methyl)-1H-imidazo[4,5-c]quinolin-8-yl)propanenitrile], the IC50 is at most 100 nM.

Turning to `CN(Cc1ccccn1)C(=O)CCc1nc2c(N3CC(N(C)C)C3)nc3c(F)c(-c4cc(O)cc5ccccc45)c(CCC#N)cc3c2n1C1C2CNC1C2` (stereo not drawn) [Example 301a, 3-(1-((endo)-2-azabicyclo[2.1.1]hexan-5-yl)-8-(2-cyanoethyl)-4-(3-(dimethylamino)azetidin-1-yl)-6-fluoro-7-(3-hydroxynaphthalen-1-yl)-1H-imidazo[4,5-c]quinolin-2-yl)-N-methyl-N-(pyridin-2-ylmethyl)propanamide], the IC50 is at most 100 nM.

Consider `CN(C)C1CN(c2nc3c(F)c(-c4cc(O)cc5ccccc45)c(Cl)cc3c3c2ncn3[C@H]2[C@H]3CN[C@@H]2C3)C1` (single isomer, unassigned) [Example 48a, 4-(1-((endo)-2-azabicyclo[2.1.1]hexan-5-yl)-8-chloro-4-(3-(dimethylamino)azetidin-1-yl)-6-fluoro-1H-imidazo[4,5-c]quinolin-7-yl)naphthalen-2-ol], for which the IC50 lay within 100 to 1000 nM.

`CN(C)C1CN(c2nc3c(F)c(-c4cc(O)cc5ccccc45)c(Cl)cc3c3c2nc(CC2CCNCC2)n3[C@H]2[C@H]3CN[C@@H]2C3)C1` (relative stereo) [Example 77, 4-(1-((endo)-2-azabicyclo[2.1.1]hexan-5-yl)-8-chloro-4-(3-(dimethylamino)azetidin-1-yl)-6-fluoro-2-(piperidin-4-ylmethyl)-1H-imidazo[4,5-c]quinolin-7-yl)naphthalen-2-ol]: the IC50 was in the range of 1000 to 5000 nM.

In the case of `CN(C)C1CN(c2nc3c(F)c(-c4cc(O)cc5ccccc45)c(Cl)cc3c3c2nc(-c2cn(C)cn2)n3[C@H]2[C@H]3CN[C@@H]2C3)C1` [Example 78, 4-(1-((endo)-2-azabicyclo[2.1.1]hexan-5-yl)-8-chloro-4-(3-(dimethylamino)-azetidin-1-yl)-6-fluoro-2-(1-methyl-1H-imidazol-4-yl)-1H-imidazo[4,5-c]quinolin-7-yl)naphthalen-2-ol], the IC50 fell in the range of 100 to 1000 nM.

As to `CN(C)C(=O)CCc1nc2c(N3CC(N(C)C)C3)nc3c(F)c(-c4cccc5ccc(F)cc45)c(CCC#N)cc3c2n1C1C2CNC1C2` (single isomer, unassigned) [Example 291b, 3-(1-((endo)-2-azabicyclo[2.1.1]hexan-5-yl)-8-(2-cyanoethyl)-4-(3-(dimethylamino)azetidin-1-yl)-6-fluoro-7-(7-fluoronaphthalen-1-yl)-1H-imidazo[4,5-c]quinolin-2-yl)-N,N-dimethylpropanamide], the IC50 is at most 100 nM.

As to `Oc1cc(-c2c(Cl)cc3c(nc(N4C5CCC4CNC5)c4ncn([C@H]5[C@H]6CN[C@@H]5C6)c43)c2F)c2ccccc2c1` (single isomer, unassigned) [Example 35a, 4-(1-((endo)-2-azabicyclo[2.1.1]hexan-5-yl)-4-(3,8-diazabicyclo[3.2.1]octan-8-yl)-8-chloro-6-fluoro-1H-imidazo[4,5-c]quinolin-7-yl)naphthalen-2-ol], the IC50 was 1000 to 5000 nM.

Consider `Cc1cc2c(nc(N3CC(N(C)C)C3)c3ncn([C@H]4[C@H]5CN[C@@H]4C5)c32)c(F)c1-c1cc(O)cc2ccccc12` (single isomer, unassigned) [Example 34a, 4-(1-((endo)-2-azabicyclo[2.1.1]hexan-5-yl)-4-(3-(dimethyl-amino)azetidin-1-yl)-6-fluoro-8-methyl-1H-imidazo[4,5-c]quinolin-7-yl)naphthalen-2-ol], for which the IC50 lay within 100 to 1000 nM.

For the molecule `Cc1ccc2cc(O)cc(-c3c(Cl)cc4c(nc(N5CC(N(C)C)C5)c5ncn([C@H]6[C@H]7CN[C@@H]6C7)c54)c3F)c2c1` [Example 24, 4-(1-((endo)-2-azabicyclo[2.1.1]hexan-5-yl)-8-chloro-4-(3-(dimethylamino)-azetidin-1-yl)-6-fluoro-1H-imidazo[4,5-c]quinolin-7-yl)-6-methylnaphthalen-2-ol], the IC50 was 1000 to 5000 nM.

Consider `CCc1nc2c(N3CC(N(C)C)C3)nc3c(F)c(-c4cc(O)cc5ccc(F)cc45)c(CCC#N)cc3c2n1C1C2CNC1C2` (single isomer, unassigned) [Example 292b, 3-(1-((endo)-2-azabicyclo[2.1.1]hexan-5-yl)-4-(3-(dimethylamino)azetidin-1-yl)-2-ethyl-6-fluoro-7-(7-fluoro-3-hydroxynaphthalen-1-yl)-1H-imidazo[4,5-c]quinolin-8-yl)propanenitrile], for which the IC50 is at most 100 nM.

`CN(C)C1CN(c2nc3c(F)c(-c4cc(O)cc5ccccc45)c(Cl)cc3c3c2nc(C2CCS(=O)(=O)CC2)n3[C@H]2[C@H]3CN[C@@H]2C3)C1` (relative stereo) [Example 79, 4-(1-((endo)-2-azabicyclo[2.1.1]hexan-5-yl)-8-chloro-4-(3-(dimethylamino)azetidin-1-yl)-6-fluoro-7-(3-hydroxynaphthalen-1-yl)-1H-imidazo[4,5-c]quinolin-2-yl)tetrahydro-2H-thiopyran 1,1-dioxide]: the IC50 lay in the range of 100 to 1000 nM.

For `Cc1nc2c(N3CC(N(C)C)C3)nc3c(F)c(-c4cc(O)cc5ccccc45)c(Cl)cc3c2n1[C@H]1[C@H]2CN[C@@H]1C2` [Example 15, 4-(1-((endo)-2-azabicyclo[2.1.1]hexan-5-yl)-8-chloro-4-(3-(dimethylamino)-azetidin-1-yl)-6-fluoro-2-methyl-1H-imidazo[4,5-c]quinolin-7-yl)naphthalen-2-ol], the IC50 fell in the range of 1000 to 5000 nM.
